The target in one data set is hAM1 receptor (Homo sapiens, UniProt O60895+Q16602). The data set can be described thus: cAMP assay for in vitro receptor activation, hAM1-R. Type of data set: cell-based. The conditions noted are these: cAMP assay, hAM1 receptor; read-out: hAM1R EC50. In outline: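 A subcloned monoclonal line stably expressing hAM1 receptor is thawed and plated at 8000 cells/well. The assay buffer is DPBS with 0.05% casein and 0.5 mM IBMX, and receptor activation is followed by cAMP levels.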
Chain of hAM1 receptor (Q16602 23-461): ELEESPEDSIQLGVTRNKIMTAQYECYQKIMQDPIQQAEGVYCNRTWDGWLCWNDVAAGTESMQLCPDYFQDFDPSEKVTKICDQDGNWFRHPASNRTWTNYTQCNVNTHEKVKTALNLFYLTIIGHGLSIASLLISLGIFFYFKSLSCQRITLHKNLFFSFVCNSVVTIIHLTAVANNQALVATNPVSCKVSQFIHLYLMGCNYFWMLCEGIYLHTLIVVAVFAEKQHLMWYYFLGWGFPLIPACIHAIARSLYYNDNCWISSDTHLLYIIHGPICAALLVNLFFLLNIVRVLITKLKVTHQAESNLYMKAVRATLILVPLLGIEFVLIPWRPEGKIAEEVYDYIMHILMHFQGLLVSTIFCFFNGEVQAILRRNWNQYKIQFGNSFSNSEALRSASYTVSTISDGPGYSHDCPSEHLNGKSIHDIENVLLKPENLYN
Chain of hAM1 receptor (O60895 43-175 partner): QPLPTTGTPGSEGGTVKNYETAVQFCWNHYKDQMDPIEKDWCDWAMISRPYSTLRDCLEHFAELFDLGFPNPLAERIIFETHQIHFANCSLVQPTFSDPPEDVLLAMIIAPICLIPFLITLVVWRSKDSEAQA
Background: cAMP levels reflect the balance of adenylyl cyclase and phosphodiesterase activity.

The nature of data set [1]: Physical stability of peptide analogues (Thioflavin T fibrillation). Type of data set: physicochemical. As to conditions: maximum ThT signal normalized between hAMY maximum and buffer background; 40° C., shaking, four days; pH 7 per table title. In outline: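 ThT fluorescence (450 nm excitation, 480 nm emission; 4 μM dye) was read every 10 min over four days at 40° C under 700 rpm shaking stress, after 1 h in pH 4 acetate or pH 7 phosphate (50 mM). Peak smoothed signal expressed as percent, scaled between buffer background and hAMY maximum.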

SMILES strings stand for the structures. Bridge positions count the residues as written; N and C are the ends. Square brackets hold non-standard residues; d marks the D form. Peptide text beside a SMILES is read from it. Hyp = O=C(O)[C@@H]1C[C@@H](O)CN1; Cit = NC(=O)NCCC[C@H](N)C(=O)O

One may read the EC50 as the concentration needed to bring the measured effect to its halfway point. As for `CC[C@H](C)[C@H](NC(=O)[C@H](CC(N)=O)NC(=O)[C@H](CO)NC(=O)[C@H](CCCNC(=N)N)NC(=O)[C@@H]1CCCN1C(=O)[C@H](C)NC(=O)[C@@H](NC(=O)[C@H](CC(N)=O)NC(=O)[C@H](CC(=O)O)NC(=O)[C@H](CCCCN)NC(=O)[C@H](CC(=O)O)NC(=O)[C@H](CCCCN)NC(=O)[C@H](CC(=O)O)NC(=O)[C@@H](NC(=O)[C@H](Cc1ccccc1)NC(=O)[C@H](CCC(N)=O)NC(=O)[C@H](Cc1ccc(O)cc1)NC(=O)[C@@H](NC(=O)[C@H](CCC(N)=O)NC(=O)[C@H](Cc1c[nH]cn1)NC(=O)[C@H](C)NC(=O)[C@H](CC(C)C)NC(=O)[C@H](CCCNC(N)=O)NC(=O)[C@H](CCC(N)=O)NC(=O)[C@@H](NC(=O)[C@@H](NC(=O)[C@@H]1CSSC[C@H](NC(=O)CN)C(=O)N[C@@H](CCCNC(=N)N)C(=O)N[C@@H]([C@@H](C)O)C(=O)NCC(=O)N[C@@H]([C@@H](C)O)C(=O)N1)[C@@H](C)O)C(C)C)[C@@H](C)CC)[C@@H](C)O)C(C)C)C(=O)NCC(=O)N1CCC[C@H]1C(=O)N[C@@H](CCC(N)=O)C(=O)NCC(=O)N1C[C@H](O)C[C@H]1C(N)=O` [compound 303] (H-GCRTGTCTVQ[Cit]LAHQIYQFTDKDKDNVAPRSNIGPQG[Hyp]-NH2; disulfide 2-7), the concentration for a half-maximal effect (EC50) on hAM1 receptor was > 5 µM. Besides, the “Max ThT signal (%)” value in data set [1] amounted to 18.150%.

As to `CC[C@H](C)[C@H](NC(=O)[C@H](CCC(N)=O)NC(=O)[C@H](Cc1c[nH]cn1)NC(=O)[C@H](C)NC(=O)[C@H](CC(C)C)NC(=O)[C@H](CCCNC(N)=O)NC(=O)[C@H](CCC(N)=O)NC(=O)[C@@H](NC(=O)[C@@H](NC(=O)[C@@H]1CSSC[C@H](NC(=O)CN)C(=O)N[C@@H](CCCNC(=N)N)C(=O)N[C@@H]([C@@H](C)O)C(=O)NCC(=O)N[C@@H]([C@@H](C)O)C(=O)N1)[C@@H](C)O)C(C)C)C(=O)N[C@@H](Cc1ccc(O)cc1)C(=O)N[C@@H](CCC(N)=O)C(=O)N[C@@H](Cc1ccccc1)C(=O)N[C@H](C(=O)N[C@@H](CC(=O)O)C(=O)N[C@@H](CCCCN)C(=O)N[C@@H](CC(=O)O)C(=O)N[C@@H](CCCCN)C(=O)N[C@@H](CC(=O)O)C(=O)N[C@@H](CC(N)=O)C(=O)N[C@H](C(=O)N[C@@H](C)C(=O)N1CCC[C@H]1C(=O)N[C@@H](CCCNC(=N)N)C(=O)N[C@@H](CO)C(=O)N[C@@H](CC(N)=O)C(=O)N[C@H](C(=O)N[C@@H](CO)C(=O)N1CCC[C@H]1C(=O)N[C@@H](CC(N)=O)C(=O)NCC(=O)N1C[C@H](O)C[C@H]1C(N)=O)C(C)C)C(C)C)[C@@H](C)O` [compound 304] (H-GCRTGTCTVQ[Cit]LAHQIYQFTDKDKDNVAPRSNVSPNG[Hyp]-NH2; disulfide 2-7), the concentration for a half-maximal effect (EC50) at hAM1 receptor is > 5 µM. For the same compound, the “Max ThT signal (%)” value in data set [1] came out at 22.350%.

On to `CC(C)C[C@H](NC(=O)[C@H](Cc1c[nH]c2ccccc12)NC(=O)[C@H](CCC(N)=O)NC(=O)[C@@H](NC(=O)[C@@H](NC(=O)[C@@H]1CSSC[C@H](NC(=O)CN)C(=O)N[C@@H](CCCNC(=N)N)C(=O)N[C@@H](Cc2ccccc2)C(=O)NCC(=O)N[C@@H]([C@@H](C)O)C(=O)N1)[C@@H](C)O)C(C)C)C(=O)N[C@@H](C)C(=O)N[C@@H](CC(N)=O)C(=O)N[C@@H](Cc1ccccc1)C(=O)N[C@@H](CC(C)C)C(=O)N[C@@H](Cc1ccc(O)cc1)C(=O)N[C@@H](CCC(N)=O)C(=O)N[C@@H](Cc1ccccc1)C(=O)N[C@H](C(=O)N[C@@H](CC(=O)O)C(=O)N[C@@H](CCCCN)C(=O)N[C@@H](CC(=O)O)C(=O)N[C@@H](CCCCN)C(=O)N[C@@H](CC(=O)O)C(=O)N[C@@H](CC(N)=O)C(=O)N[C@H](C(=O)N[C@@H](C)C(=O)N1CCC[C@H]1C(=O)N[C@@H](CCCNC(=N)N)C(=O)N[C@H](C(=O)N[C@@H](CC(N)=O)C(=O)N[C@H](C(=O)NCC(=O)N1CCC[C@H]1C(=O)N[C@@H](CCC(N)=O)C(=O)NCC(=O)N[C@@H](Cc1ccc(O)cc1)C(N)=O)C(C)C)[C@@H](C)O)C(C)C)[C@@H](C)O` [compound 311] (H-GCRFGTCTVQWLANFLYQFTDKDKDNVAPRTNVGPQGY-NH2; disulfide 2-7; N-terminus assumed), for which the 50% effective concentration (EC50) on hAM1 receptor is > 5 µM. Besides, the “Max ThT signal (%)” value in data set [1] came to 6.450%.

As for `CC[C@H](C)[C@H](NC(=O)[C@H](CCC(N)=O)NC(=O)[C@H](CCC(=O)O)NC(=O)[C@H](C)NC(=O)[C@H](CC(C)C)NC(=O)[C@H](Cc1c[nH]c2ccccc12)NC(=O)[C@H](CCC(N)=O)NC(=O)[C@@H](NC(=O)[C@@H](NC(=O)[C@@H]1CSSC[C@H](NC(=O)[C@@H](N)CCCCN)C(=O)N[C@@H](CC(N)=O)C(=O)N[C@@H]([C@@H](C)O)C(=O)N[C@@H](C)C(=O)N[C@@H]([C@@H](C)O)C(=O)N1)[C@@H](C)O)C(C)C)C(=O)N[C@@H](Cc1ccc(O)cc1)C(=O)N[C@@H](CCC(N)=O)C(=O)N[C@@H](Cc1ccccc1)C(=O)N[C@H](C(=O)N[C@@H](CC(=O)O)C(=O)N[C@@H](CCCCN)C(=O)N[C@@H](CC(=O)O)C(=O)N[C@@H](CCCCN)C(=O)N[C@@H](CC(=O)O)C(=O)N[C@@H](CC(N)=O)C(=O)N[C@H](C(=O)N[C@@H](C)C(=O)N1CCC[C@H]1C(=O)N1CCC[C@H]1C(=O)N[C@@H](Cc1ccc(O)cc1)C(=O)N[C@@H](CC(N)=O)C(=O)N[C@@H](CCC(=O)O)C(=O)NCC(=O)N[C@@H](CO)C(=O)N[C@@H](CC(N)=O)C(=O)NCC(=O)N1C[C@H](O)C[C@H]1C(N)=O)C(C)C)[C@@H](C)O` [compound 321] (H-KCNTATCTVQWLAEQIYQFTDKDKDNVAPPYNEGSNG[Hyp]-NH2; disulfide 2-7; N-terminus assumed), at hAM1 receptor, the EC50 was > 5 µM. Besides, the “Max ThT signal (%)” value in data set [1] is listed as 21.700%.

For the compound `CC[C@H](C)[C@H](NC(=O)[C@H](CCC(N)=O)NC(=O)[C@H](Cc1c[nH]cn1)NC(=O)[C@H](C)NC(=O)[C@H](CC(C)C)NC(=O)[C@H](Cc1c[nH]c2ccccc12)NC(=O)[C@H](CCC(N)=O)NC(=O)[C@@H](NC(=O)[C@@H](NC(=O)[C@@H]1CSSC[C@H](NC(=O)[C@@H](N)CCCCN)C(=O)N[C@@H](CC(N)=O)C(=O)N[C@@H]([C@@H](C)O)C(=O)N[C@@H](C)C(=O)N[C@@H]([C@@H](C)O)C(=O)N1)[C@@H](C)O)C(C)C)C(=O)N[C@@H](Cc1ccc(O)cc1)C(=O)N[C@@H](CCC(N)=O)C(=O)N[C@@H](C)C(=O)N[C@H](C(=O)N[C@@H](CC(=O)O)C(=O)N[C@@H](CCCCN)C(=O)N[C@@H](CC(=O)O)C(=O)N[C@@H](CCCCN)C(=O)N[C@@H](CC(=O)O)C(=O)N[C@@H](CC(N)=O)C(=O)N[C@H](C(=O)N[C@@H](C)C(=O)N1CCC[C@H]1C(=O)N1CCC[C@H]1C(=O)N[C@H](C(=O)N[C@@H](CC(N)=O)C(=O)N[C@H](C(=O)NCC(=O)N[C@@H](CO)C(=O)N[C@@H](CC(N)=O)C(=O)NCC(=O)N1C[C@H](O)C[C@H]1C(N)=O)C(C)C)[C@@H](C)O)C(C)C)[C@@H](C)O` [compound 338] (H-KCNTATCTVQWLAHQIYQATDKDKDNVAPPTNVGSNG[Hyp]-NH2; disulfide 2-7; N-terminus assumed), the EC50 on hAM1 receptor was > 5 µM. The “Max ThT signal (%)” value in data set [1] is reported as 2.950%.

In the case of `CC[C@H](C)[C@H](NC(=O)[C@H](CCC(N)=O)NC(=O)[C@H](Cc1c[nH]cn1)NC(=O)[C@H](C)NC(=O)[C@H](CC(C)C)NC(=O)[C@H](Cc1c[nH]c2ccccc12)NC(=O)[C@H](CCC(N)=O)NC(=O)[C@@H](NC(=O)[C@@H](NC(=O)[C@@H]1CSSC[C@H](NC(=O)CN)C(=O)N[C@@H](CCCNC(=N)N)C(=O)N[C@@H]([C@@H](C)O)C(=O)NCC(=O)N[C@@H]([C@@H](C)O)C(=O)N1)[C@@H](C)O)C(C)C)C(=O)N[C@@H](Cc1ccc(O)cc1)C(=O)N[C@@H](CCC(N)=O)C(=O)N[C@@H](Cc1ccccc1)C(=O)N[C@H](C(=O)N[C@@H](CC(=O)O)C(=O)N[C@@H](CCCCN)C(=O)N[C@@H](CC(=O)O)C(=O)N[C@@H](CCCCN)C(=O)N[C@@H](CC(=O)O)C(=O)N[C@@H](CC(N)=O)C(=O)N[C@H](C(=O)N[C@@H](C)C(=O)N1CCC[C@H]1C(=O)N[C@@H](CCCNC(=N)N)C(=O)N[C@@H](CO)C(=O)N[C@@H](CCCCN)C(=O)N[C@H](C(=O)NCC(=O)N1CCC[C@H]1C(=O)N[C@@H](CCC(N)=O)C(=O)NCC(=O)N[C@@H](Cc1ccc(O)cc1)C(N)=O)C(C)C)C(C)C)[C@@H](C)O` [compound 344] (H-GCRTGTCTVQWLAHQIYQFTDKDKDNVAPRSKVGPQGY-NH2; disulfide 2-7; N-terminus assumed), the EC50 at hAM1 receptor is > 5 µM. In addition, in data set [1], the “Max ThT signal (%)” value is on record as 13.350%.

For the compound `CC[C@H](C)[C@H](NC(=O)[C@H](CCC(N)=O)NC(=O)[C@H](Cc1c[nH]cn1)NC(=O)[C@H](C)NC(=O)[C@H](CC(C)C)NC(=O)[C@H](Cc1c[nH]c2ccccc12)NC(=O)[C@H](CCC(N)=O)NC(=O)[C@@H](NC(=O)[C@@H](NC(=O)[C@@H]1CSSC[C@H](NC(=O)CN)C(=O)N[C@@H](CCCNC(=N)N)C(=O)N[C@@H]([C@@H](C)O)C(=O)NCC(=O)N[C@@H]([C@@H](C)O)C(=O)N1)[C@@H](C)O)C(C)C)C(=O)N[C@@H](Cc1ccc(O)cc1)C(=O)N[C@@H](CCC(N)=O)C(=O)N[C@@H](Cc1ccccc1)C(=O)N[C@H](C(=O)N[C@@H](CC(=O)O)C(=O)N[C@@H](CCCCN)C(=O)N[C@@H](CC(=O)O)C(=O)N[C@@H](CCCCN)C(=O)N[C@@H](CC(=O)O)C(=O)N[C@@H](CC(N)=O)C(=O)N[C@H](C(=O)N[C@@H](C)C(=O)N1CCC[C@H]1C(=O)N[C@@H](CCCNC(=N)N)C(=O)N[C@H](C(=O)N[C@@H](CCCCN)C(=O)N[C@H](C(=O)NCC(=O)N1CCC[C@H]1C(=O)N[C@@H](CCC(N)=O)C(=O)NCC(=O)N1C[C@H](O)C[C@H]1C(N)=O)C(C)C)[C@@H](C)O)C(C)C)[C@@H](C)O` [compound 349] (H-GCRTGTCTVQWLAHQIYQFTDKDKDNVAPRTKVGPQG[Hyp]-NH2; disulfide 2-7; N-terminus assumed), the EC50 at hAM1 receptor was > 5 µM. Moreover, the “Max ThT signal (%)” value in data set [1] worked out at 15.250%.

The values above are taken from patent US12139520B2 (priority 2020, dated 2024).
